Source: US20240308990A1, “CRYSTAL FORM OF ENTRECTINIB AND PREPARATION METHOD THEREFOR” (QILU PHARMACEUTICAL CO., LTD., priority 2021, published 2024)
Values after ≈ are worked out from the molar mass of the structure shown. Where two headings read alike, the source gives them in different places.

Columns and labels:
[1] = Crystal form stability test (affecting factors); type: physicochemical; conditions: for Crystal form stability (in words): after a 10-day affecting factor test
Description: The experimental method was as follows: a ground sample (100 mg) was filled in a groove of a glass plate, the plane of the sample was made to the same level as the glass surface by using a glass slide, the sample was placed in a PANalytical X-ray powder diffractometer, and a 40 kV and 40 mA copper X-ray source was used, with a scanning range of 3-45° (2θ) and a scanning rate of 8°/min. The scanning error is typically ±0.2 degrees (2θ).

[2] = background statement; cited from earlier work
[3] = Chemical stability test (affecting factors, HPLC purity); type: physicochemical; conditions: for Chemical stability (in words): after a 10-day affecting factor test
Text: For the specific method for testing the stability, reference could be made to high performance liquid chromatography in General Chapter 0512, Chinese Pharmacopoeia, Volume IV, 2015 Edition.

[4] = Crystal microscopic morphology by scanning electron microscope; type: physicochemical
Text: The experimental method was as follows: an appropriate amount of test sample was taken, uniformly spread on a conductive adhesive tape, sprayed with gold, and observed under an electron microscope.
(§1) The determination results are as follows.

[5] = Solubility comparison of crystals; type: physicochemical; conditions: for Solubility in 95% ethanol / Solubility in aqueous solution with pH = 1 / solubility at 20 min: 25° C., dissolution time 20 min; for Solubility compared with crystal form 2 and crystal form 4: 95% ethanol and aqueous solution with pH=1; for solubility at 20 min: thermodynamic from solid
Description: • Dissolution temperature: 25° C. • Dissolution time: 20 min

[6] = Crushing, static electricity and fluidity test; type: physicochemical; conditions: for Static electricity: reference forms: after crushing
Text: as §1

[7] = Preparation stability of crystal forms (mixing and slurrying, X-RPD); type: physicochemical; conditions: for Converted crystal form: 0.1 g mixed with 0.1 g crystal form A of Example 2, slurried in acetone/water at room temperature for 10 h
Description: The mixing and slurring method was as follows: 0.1 g of each of the two crystal forms to be mixed was weighed and added into a single-necked flask. 2 mL of acetone and 1 mL of water were added. The mixture was stirred and slurried at room temperature for 10 h, filtered, and dried in air at room temperature to obtain crystals. The crystal forms were determined by X-RPD.

[8] = High humidity condition 90% RH, 10 days
[9] = High temperature condition 60° C., 10 days
[10] = Light condition 5000 lux/h, 10 days

Row | SMILES | Crystal form found ([1]; 0 day) | Crystal form found [1, 8] | Crystal form found [1, 9] | Crystal form found [1, 10] | Purity (%) ([3]; 0 day) | Purity (%) [3, 8] [%] | Purity (%) [3, 9] [%] | Purity (%) [3, 10] [%] | electron microscopy results of the crystal: length of larger crystals/particles [4] | electron microscopy results of the crystal: shape and size uniformity [4] | Solubility in 95% ethanol [5] [mg/mL] | Solubility in aqueous solution with pH = 1 [5] [mg/mL] | Fluidity [6] | Converted crystal form [7] | Static electricity [6] | also measured
1 | CN1CCN(c2ccc(C(=O)Nc3n[nH]c4ccc(Cc5cc(F)cc(F)c5)cc34)c(NC3CCOCC3)c2)CC1 [Crystal form B of Example 5, N-[5-(3,5-difluorobenzyl)-1H-indazol-3-yl]-4-(4-methylpiperazin-1-yl)-2-[(tetrahydro-2H-pyran-4-yl)amino]benzamide] | form B | form B | form B | form B | 99.91 | 99.90 | 99.91 | 99.91 | ~10 μm | Rod-shaped, relatively uniform size, | 26.2 (≈ 46.7 mM) | 21.0 | good fluidity |  |  | Solubility compared with crystal form 2 and crystal form 4 [5]: better solubility; Crystal form stability (in words) [1]: good crystal form stability; Fluidity ([6]; listed as crystal form B): good fluidity; Chemical stability (in words) [3]: good chemical stability
2 | CN1CCN(c2ccc(C(=O)Nc3n[nH]c4ccc(Cc5cc(F)cc(F)c5)cc34)c(NC3CCOCC3)c2)CC1 [Crystal form AZT-E of Reference Example 6] [entrectinib] |  |  |  |  |  |  |  |  | more than about 1000 μm | Irregular bulk-shaped, non-uniform |  |  | poor fluidity | Crystal form A | strong static electricity after crushing, and | Fluidity ([6]; listed as crystal form AZT-E): poor fluidity; Static electricity ([6]; listed as crystal form AZT-E): relatively strong static electricity after being crushed
3 | CN1CCN(c2ccc(C(=O)Nc3n[nH]c4ccc(Cc5cc(F)cc(F)c5)cc34)c(NC3CCOCC3)c2)CC1 [Crystal form 2 of Reference Example 2, entrectinib] | form 2 | form 2 | form 2 | form 2 | 99.34 | 99.33 | 99.34 | 99.33 | about 85 μm | Sheet-shaped, fragile, non-uniform | 21.1 (≈ 37.6 mM) | 19.1 | crushing, and poor fluidity | Crystal form A | relatively strong static electricity after | Solubility (in words) [2]: poor solubility; Fluidity ([6]; listed as crystal form 2): poor fluidity; Static electricity ([6]; listed as crystal form 2): relatively strong static electricity after being crushed
4 | CN1CCN(c2ccc(C(=O)Nc3n[nH]c4ccc(Cc5cc(F)cc(F)c5)cc34)c(NC3CCOCC3)c2)CC1 [Crystal form AZT-B of Reference Example 5] [entrectinib] |  |  |  |  |  |  |  |  | more than about 1000 μm | Irregular bulk-shaped, non-uniform |  |  | poor fluidity | Crystal form A | strong static electricity after crushing, and | Fluidity ([6]; listed as crystal form AZT-B): poor fluidity; Static electricity ([6]; listed as crystal form AZT-B): relatively strong static electricity after being crushed

More lines, main results first:

Row | Crystal form found ([1]; 0 day) | Crystal form found [1, 8] | Crystal form found [1, 9] | Crystal form found [1, 10] | Purity (%) ([3]; 0 day) | Purity (%) [3, 8] [%] | Purity (%) [3, 9] [%] | Purity (%) [3, 10] [%] | electron microscopy results of the crystal: length of larger crystals/particles [4] | electron microscopy results of the crystal: shape and size uniformity [4] | Solubility in 95% ethanol [5] [mg/mL] | Solubility in aqueous solution with pH = 1 [5] [mg/mL] | Fluidity [6] | Converted crystal form [7] | SMILES | Static electricity [6] | also measured
5 | form 1 | form 1 | form 2 | form 1 | 99.21 | 99.20 | 99.20 | 99.19 |  |  |  |  |  |  | CN1CCN(c2ccc(C(=O)Nc3n[nH]c4ccc(Cc5cc(F)cc(F)c5)cc34)c(NC3CCOCC3)c2)CC1 [Crystal form 1 of Reference Example 1, entrectinib] |  | Crystal form stability (in words) ([1]; listed as crystal form 1 in Reference Example 1): unstable and shows crystal form conversion under a high temperature condition; Crystal form stability (in words) [2]: unstable and is easy to be converted into another crystal form
6 |  |  |  |  |  |  |  |  | about 700 μm | Irregular bulk-shaped, non-uniform |  |  | poor fluidity | Crystal form A | CN1CCN(c2ccc(C(=O)Nc3n[nH]c4ccc(Cc5cc(F)cc(F)c5)cc34)c(NC3CCOCC3)c2)CC1 [Crystal form AZT-A of Reference Example 4] [entrectinib] | strong static electricity after crushing, and | Fluidity ([6]; listed as crystal form AZT-A): poor fluidity; Static electricity ([6]; listed as crystal form AZT-A): relatively strong static electricity after being crushed
7 | form A | form A | form A | form A | 99.92 | 99.92 | 99.91 | 99.91 | ~20 μm | Rod-shaped, relatively uniform size, |  |  | good fluidity |  | CN1CCN(c2ccc(C(=O)Nc3n[nH]c4ccc(Cc5cc(F)cc(F)c5)cc34)c(NC3CCOCC3)c2)CC1 [Crystal form A of Example 2, N-[5-(3,5-difluorobenzyl)-1H-indazol-3-yl]-4-(4-methylpiperazin-1-yl)-2-[(tetrahydro-2H-pyran-4-yl)amino]benzamide] |  | Solubility compared with crystal form 2 and crystal form 4 [5]: better solubility; solubility at 20 min ([5]; 95% ethanol, 25 °C, organic solvent or mixture, read-out: Solubility in 95% ethanol): 28.4 mg/mL (≈ 50.7 mM); solubility at 20 min ([5]; aqueous solution with pH 1, 25 °C, pH 1, simulated gastric fluid, read-out: Solubility in aqueous solution with pH = 1): 22.6 mg/mL (≈ 40.3 mM); Crystal form stability (in words) [1]: good crystal form stability; Fluidity ([6]; listed as crystal form A): good fluidity; Crystal conversion in acetone/water slurry (in words) ([7]; acetone/water system, room temperature, 10 h): will not be subjected to crystal conversion; Chemical stability (in words) [3]: good chemical stability
8 | form 4 | form 4 | form 4 | form 4 | 99.29 | 99.29 | 99.28 | 99.28 |  |  | 20.5 (≈ 36.6 mM) | 18.8 |  | Crystal form A | CN1CCN(c2ccc(C(=O)Nc3n[nH]c4ccc(Cc5cc(F)cc(F)c5)cc34)c(NC3CCOCC3)c2)CC1 [Crystal form 4 of Reference Example 3, entrectinib] |  | 
